Measurements from patent US7790896B2, “RNA-selective probes for live cell imaging of nuclear structure and function” (New York University, priority 2006, dated 2010).

Columns and labels:
[1] = Fluorescence spectrum in TE buffer of dyes selected from live cell imaging; format: physicochemical; conditions: dye 10 μM in TE buffer
Experimental: The fluorescence spectra data in the primary screening and selected dyes titration assay study was obtained by Gemini XS plate reader. RNA solution was prepared right before the assay experiments to avoid possible degradation and contamination. In the primary screening, 1 mg/mL RNA (type VI from torula yeast) buffer solution was used. Point scans were carried out first using five Ex/Em point sets ([…], 400/500, 450/550, 500/600, 550/650 nm). Spectra scans were then carried out for the selected dyes. Excitation wavelengths were set at 350 nm, 400 nm, 450 nm, 500 nm, and 550 nm and the emission wavelengths were scanned. RNA (16S- and 23S-ribosomal from E. coli) and DNA (salmon testes) titration experiments and quantum yield/extinction coefficient determination for the three best dyes were carried out by the plate reader as well. Excitation λmax obtained from F-2500 Hitachi Fluorophotometer was used. Absorbance wavelength was determined by SpectraMax Plus^384 absorbance plate reader. […] was chosen as standard and 480 nm was used as excitation wavelength in the scanning for quantum yield determination.

[2] = test system: Hela, A549, 3T3, and 3T3-L1; assay: Optimization of working concentration and imaging properties, live cell staining; format: cell-based, human, mouse; conditions: 20, 10, 5 and 1 μM tested in four cell lines
Experimental: (§1) All cell staining imaging followed the same procedure. Generally, dyes in dry state were first dissolved in DMSO to obtain the stock solution. The stock solutions were then added directly to the cell culture wells to reach the desired concentration. Total DMSO was lower than 0.1%. After adding dyes, cells were incubated at 37° C. in 5% CO2 for 25 minutes. The medium was then removed and cells were rinsed with fresh medium twice. The cells were then imaged at ambient temperature in the medium. Exposure time was kept less than 5 seconds and adjusted to each dye.
In fluorescence microscopic imaging studies, it is always desirable to use as little dye as possible to stain organelles in order to maximize specificity and minimize dye toxicity and cell death. To determine the lowest working concentration of each dye, four different concentrations (20 μM, 10 μM, 5 μM, and 1 μM) were tested in four cell lines (Hela, A549, 3T3, and 3T3-L1). Dyes E36, E144, and F112 were imaged using FITC channel, and F22 was imaged using Cy3 channel. Generally, a quality fluorescence signal for each dye was produced using a concentration of 5 μM for E36, E144, and F22 and 10 μM for F112 (Table 5). It was interesting to observe that compound F22 was brighter in 3T3 cells, and a concentration of 1 μM was sufficient for a clear image (FIG. 4). […] Little photobleaching and no obvious cell morphology or viability changes were observed during the tests.

[3] = test system: Hela, A549, 3T3, and 3T3-L1 cells; assay: Dye cell-tolerability: cell viability and morphology changes observed; format: cell-based, human, mouse; conditions: 20 μM, after 8 hours
Experimental: Low cytotoxicity is one of the most important criteria for live cell imaging probes. All four compounds were tested at 20 μM, 10 μM, 5 μM, and 1 μM in Hela, A549, 3T3, and 3T3-L1 cells. Cell viability and morphology changes were observed during 2, 8, and 24 hours. Only dye E36 was toxic to A549, 3T3, and 3T3-L1 cells at high concentration (20 μM) after 8 hours.

[4] = test system: 3T3 cells; assay: Live cell staining working concentration in 3T3 cells; format: cell-based, mouse
Experimental: as §1
In fluorescence microscopic imaging studies, it is always desirable to use as little dye as possible to stain organelles in order to maximize specificity and minimize dye toxicity and cell death. To determine the lowest working concentration of each dye, four different concentrations (20 μM, 10 μM, 5 μM, and 1 μM) were tested in four cell lines (Hela, A549, 3T3, and 3T3-L1). Dyes E36, E144, and F112 were imaged using FITC channel, and F22 was imaged using Cy3 channel. Generally, a quality fluorescence signal for each dye was produced using a concentration of 5 μM for E36, E144, and F22 and 10 μM for F112 (Table 5). It was interesting to observe that compound F22 was brighter in 3T3 cells, and a concentration of 1 μM was sufficient for a clear image (FIG. 4). […]

[5] = test system: A549; assay: Phototoxicity test, MTS assay of irradiated cells; format: cell-based, human; conditions: dye 5 μM, irradiated 5 minutes, 24 hours incubation
Experimental: Dye DMSO stock solutions were diluted by fresh medium into working concentration (5 μM). Cells were cultured in 96-well plate for 12 hours before experiments. The cell medium was exchanged with dye medium solutions. Cells were then incubated in at 37° C., in 5% CO2 for 25 minutes before being irradiated by fluorescent light using the appropriate working filter (FITC for E36 and E144; Cy3 for F22) for 5 minutes. The plates were then incubated at 37° C. in 5% CO2 The cell viability was measured by MTS assay after 5 and 24 hours following the cytotoxicity measurement procedure. Duplicated experiments have been tested.
Phototoxicity is also an important factor in evaluating applicability of new fluorescent probes for live cell imaging. […] Nevertheless, it is desirable for the new imaging probes to be as non-phototoxic as possible. To investigate the phototoxicity of the present RNA-selective compounds, cellular viability of irradiated cells using MTS assay was assessed. Cells were incubated with dyes (E36, E144, and F22) in their working concentration (5 μM), and then irradiated with the appropriate filters using the fluorescent microscope (FITC for E36 and E144; Cy3 for F22). While light exposures used for imaging experiments are generally a few seconds long at most, cells were irradiated for 5 minutes for prolonged toxicity measurement. […]

SMILES	SPECTRUM EM [1] [nm]	SPECTRUM EX [1] [nm]	Optimum Concentration for live cell imaging [2] [µM]	Toxicity (cell viability and morphology changes) [3]	Concentration sufficient for a clear image [4] [µM]	Phototoxicity [5]
C[n+]1c(/C=C/c2c[nH]c3ccccc23)ccc2ccccc21 [Dye E36]	550	450	5	toxic		
COc1ccc2c(ccc(/C=C/c3ccc(N(C)C)cc3)[n+]2C)c1 [Dye F22]					1	not A549
COc1cc(OC)c(/C=C/c2ccc3ccccc3[n+]2C)c(OC)c1 [Dye E144]			5			
